Experiments:
[1] = biological target: human RIPK3 (Homo sapiens (Human), UniProt Q9Y572); assay: KINOMEscan binding assay, human RIPK3; conditions: equilibrium dissociation constant
Outline: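 Competition binding format with qPCR detection. Kinases, either phage-fused from E. coli lysates or HEK-293-derived with a DNA tag, bound ligand-coated beads in the presence of compound (11 points, 3-fold steps, 1% DMSO, top usually 30,000 nM). Kd from nonlinear Hill fitting with slope −1.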

[2] = tested on: U937 human histiocytic leukemia cell line; assay: Inhibition of TSQ induced necroptosis in U937 cells (CellTitre-Glo); conditions: Homo sapiens, U-937, TSQ cocktail (TNF, Smac mimetic, Q-VD-OPh), 48 hours, read-out: Inhibition of TSQ-induced necroptosis (IC50 cell-based assay)
Outline: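 Necroptosis was induced with TNF-Fc (100 ng/ml), Smac mimetic (500 nM) and Q-VD-OPh (10 μM) in 20000 U937 cells/well exposed to a 10-point, 3-fold compound series (top 36 μM, 0.3% DMSO). ATP luminescence read after 48 h; 4-parameter fit gave IC50. Parallel TSQ-free wells assessed compound toxicity.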

human RIPK3, sequence (Q9Y572 whole entry, the tested form may be a part): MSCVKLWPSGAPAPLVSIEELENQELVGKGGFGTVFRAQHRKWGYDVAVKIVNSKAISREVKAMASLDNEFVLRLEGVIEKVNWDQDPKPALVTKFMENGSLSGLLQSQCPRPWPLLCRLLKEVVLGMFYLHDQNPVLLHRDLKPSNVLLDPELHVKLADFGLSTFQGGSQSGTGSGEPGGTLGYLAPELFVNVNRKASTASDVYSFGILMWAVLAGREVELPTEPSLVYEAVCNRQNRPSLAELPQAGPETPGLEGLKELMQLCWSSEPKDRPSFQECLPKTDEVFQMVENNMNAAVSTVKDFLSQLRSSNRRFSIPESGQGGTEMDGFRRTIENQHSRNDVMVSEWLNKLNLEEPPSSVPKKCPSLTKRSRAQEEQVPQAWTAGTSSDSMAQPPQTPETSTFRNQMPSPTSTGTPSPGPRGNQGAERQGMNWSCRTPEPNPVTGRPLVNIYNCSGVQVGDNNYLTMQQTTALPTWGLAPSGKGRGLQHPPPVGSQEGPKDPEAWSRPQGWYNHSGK

| Kd [1] [µM] | Compound | IC50 [2] [µM] |
| --- | --- | --- |
| > 10 | C[C@H](Oc1cc(-c2nn(C)c3c(-c4cnn(C5CCN(C)C(C)(C)C5)c4)cnc(N)c23)ccc1NS(=O)(=O)C(F)F)c1ccc(F)cc1 (single isomer, unassigned) [Compound 113] | < 0.01 |
| > 10 | C[C@H](Oc1cc(-c2nn(C)c3c(-c4cnn(C5CCN(C)C(C)(C)C5)c4)cnc(N)c23)ccc1NS(=O)(=O)C(F)F)c1ccc(F)cc1 (single isomer, unassigned) [Compound 154, N-(4-(4-amino-1-methyl-7-(1-((R*)-1,2,2-trimethylpiperidin-4-yl)-1H-pyrazol-4-yl)-1H-pyrazolo[4,3-c]pyridin-3-yl)-2-((S)-1-(4-fluorophenyl)ethoxy)phenyl)-1,1-difluoromethanesulfonamide] | < 0.01 |
| > 10 | C[C@H](Oc1cc(-c2nn(C)c3c(-c4cnn(C5CCN(C)C6(CC6)C5)c4)cnc(N)c23)ccc1NS(=O)(=O)C(F)F)c1ccc(F)cc1 (single isomer, unassigned) [Compound 170, N-(4-(4-amino-1-methyl-7-(1-((S*)-4-methyl-4-azaspiro[2.5]octan-7-yl)-1H-pyrazol-4-yl)-1H-pyrazolo[4,3-c]pyridin-3-yl)-2-((S)-1-(4-fluorophenyl)ethoxy)phenyl)-1,1-difluoromethanesulfonamide] | 0.01 to 1 |
| > 10 | Cn1nc(-c2ccc(NS(=O)(=O)C(F)F)c(OCc3ccc(F)cc3)c2)c2c(N)ncc(-c3cnn(C4CCOCC4)c3)c21 [Compound 13, N-(4-(4-amino-1-methyl-7-(1-(tetrahydro-2H-pyran-4-yl)-1H-pyrazol-4-yl)-1H-pyrazolo[4,3-c]pyridin-3-yl)-2-((4-fluorobenzyl)oxy)phenyl)-1,1-difluoromethanesulfonamide] | 0.01 to 1 |
| > 10 | C[C@H](Oc1cc(-c2nn(C)c3c(-c4cnn(C5CCOCC5)c4)cnc(N)c23)ccc1NS(=O)(=O)C(F)F)c1ccc(F)cc1 [Compound 19, (S)-N-(4-(4-amino-1-methyl-7-(1-(tetrahydro-2H-pyran-4-yl)-1H-pyrazol-4-yl)-1H-pyrazolo[4,3-c]pyridin-3-yl)-2-(1-(4-fluorophenyl)ethoxy)phenyl)-1,1-difluoromethanesulfonamide] | < 0.01 |
| > 10 | COCCn1cc(-c2cnc(N)c3c(-c4ccc(NS(=O)(=O)C(F)F)c(O[C@@H](C)c5ccc(F)cc5)c4)nn(C)c23)cn1 [Compound 29, (S)-N-(4-(4-amino-7-(1-(2-methoxyethyl)-1H-pyrazol-4-yl)-1-methyl-1H-pyrazolo[4,3-c]pyridin-3-yl)-2-(1-(4-fluorophenyl)ethoxy)phenyl)-1,1-difluoromethanesulfonamide] | < 0.01 |
| > 10 | C[C@H](Oc1cc(-c2nn(C)c3c(-c4cnn(C5CCCC5)c4)cnc(N)c23)ccc1NS(=O)(=O)C(F)F)c1ccc(F)cc1 [Compound 30, (S)-N-(4-(4-amino-7-(1-cyclopentyl-1H-pyrazol-4-yl)-1-methyl-1H-pyrazolo[4,3-c]pyridin-3-yl)-2-(1-(4-fluorophenyl)ethoxy)phenyl)-1,1-difluoromethanesulfonamide] | < 0.01 |
| > 10 | C[C@H](Oc1cc(-c2nn(C)c3c(-c4cnn(C5CCN(C)CC5)c4)cnc(N)c23)ccc1NS(=O)(=O)C(F)F)c1ccc(F)cc1 [Compound 46, (S)-N-(4-(4-amino-1-methyl-7-(1-(1-methylpiperidin-4-yl)-1H-pyrazol-4-yl)-1H-pyrazolo[4,3-c]pyridin-3-yl)-2-(1-(4-fluorophenyl)ethoxy)phenyl)-1,1-difluoromethanesulfonamide] | 0.01 to 1 |
| > 10 | C[C@H](Oc1cc(-c2nn(C)c3c(C#CC4CCNCC4)cnc(N)c23)ccc1NS(=O)(=O)C(F)F)c1ccc(F)cc1 [Compound 79, (S)—N-(4-(4-amino-1-methyl-7-(piperidin-4-ylethynyl)-1H-pyrazolo[4,3-c]pyridin-3-yl)-2-(1-(4-fluorophenyl)ethoxy)phenyl)-1,1-difluoromethanesulfonamide] | 0.01 to 1 |
| > 10 | C[C@H](Oc1cc(-c2nn(C)c3c(C#CC4CCN(C)CC4)cnc(N)c23)ccc1NS(=O)(=O)C(F)F)c1ccc(F)cc1 [Compound 80, (S)—N-(4-(4-amino-1-methyl-7-((1-methylpiperidin-4-yl)ethynyl)-1H-pyrazolo[4,3-c]pyridin-3-yl)-2-(1-(4-fluorophenyl)ethoxy)phenyl)-1,1-difluoromethanesulfonamide] | 0.01 to 1 |
| > 10 | CC(C)N(C)C(=O)C(C)n1cc(-c2cnc(N)c3c(-c4ccc(NS(=O)(=O)C(F)F)c(O[C@@H](C)c5ccc(F)cc5)c4)nn(C)c23)cn1 (stereo partly drawn) [Compound 81, 2-(4-(4-amino-3-(4-((difluoromethyl)sulfonamido)-3-((S)-1-(4-fluorophenyl)ethoxy)phenyl)-1-methyl-1H-pyrazolo[4,3-c]pyridin-7-yl)-1H-pyrazol-1-yl)-N-isopropyl-N-methylpropanamide] | < 0.01 |
| > 10 | C[C@H](Oc1cc(-c2nn(C)c3c(-c4cnn(C(C)(C)CO)c4)cnc(N)c23)ccc1NS(=O)(=O)C(F)F)c1ccc(F)cc1 [Compound 97, (S)-N-(4-(4-amino-7-(1-(1-hydroxy-2-methylpropan-2-yl)-1H-pyrazol-4-yl)-1-methyl-1H-pyrazolo[4,3-c]pyridin-3-yl)-2-(1-(4-fluorophenyl)ethoxy)phenyl)-1,1-difluoromethanesulfonamide] | 0.01 to 1 |
| > 10 | C[C@H](Oc1cc(-c2nn(C)c3c(-c4cnn(C5(CC#N)COC5)c4)cnc(N)c23)ccc1NS(=O)(=O)C(F)F)c1ccc(F)cc1 [Compound 98, (S)-N-(4-(4-amino-7-(1-(3-(cyanomethyl)oxetan-3-yl)-1H-pyrazol-4-yl)-1-methyl-1H-pyrazolo[4,3-c]pyridin-3-yl)-2-(1-(4-fluorophenyl)ethoxy)phenyl)-1,1-difluoromethanesulfonamide] | 0.01 to 1 |
| > 10 | C[C@H](Oc1cc(-c2nn(C)c3c(-c4cnn(C5CC6(C5)CN(C)C6)c4)cnc(N)c23)ccc1NS(=O)(=O)C(F)F)c1ccc(F)cc1 [Compound 99, (S)-N-(4-(4-amino-1-methyl-7-(1-(2-methyl-2-azaspiro[3.3]heptan-6-yl)-1H-pyrazol-4-yl)-1H-pyrazolo[4,3-c]pyridin-3-yl)-2-(1-(4-fluorophenyl)ethoxy)phenyl)-1,1-difluoromethanesulfonamide] | 0.01 to 1 |
| > 10 | [2H]C([2H])([2H])N1CCC(n2cc(-c3cnc(N)c4c(-c5ccc(NS(=O)(=O)C(F)F)c(O[C@@H](C)c6ccc(F)cc6)c5)nn(C)c34)cn2)CC1 [Compound 103] | < 0.01 |
| > 10 | C[C@H](Oc1cc(-c2nn(C)c3c(-c4cnn(C5CCC(C)(C)N(C)C5)c4)cnc(N)c23)ccc1NS(=O)(=O)C(F)F)c1ccc(F)cc1 (stereo partly drawn) [Compound 104, N-(4-{4-amino-1-methyl-7-[1-(1,6,6-trimethylpiperidin-3-yl)-1H-pyrazol-4-yl]-1H-pyrazolo[4,3-c]pyridin-3-yl}-2-[(1 S)-1-(4-fluorophenyl)ethoxy]phenyl)-1,1-difluoromethanesulfonamide] | < 0.01 |
| > 10 | CC(=O)N1CCC(n2cc(-c3cnc(N)c4c(-c5ccc(NS(=O)(=O)C(F)F)c(O[C@@H](C)c6ccc(F)cc6)c5)nn(C)c34)cn2)CC1 [Compound 109, (S)—N-(4-(7-(1-(1-acetylpiperidin-4-yl)-1H-pyrazol-4-yl)-4-amino-1-methyl-1H-pyrazolo[4,3-c]pyridin-3-yl)-2-(1-(4-fluorophenyl)ethoxy)phenyl)-1,1-difluoromethanesulfonamide] | < 0.01 |
| > 10 | C[C@H](Oc1cc(-c2nn(C)c3c(-c4cnn(CC(F)(F)F)c4)cnc(N)c23)ccc1NS(=O)(=O)C(F)F)c1ccc(F)cc1 [Compound 116, (S)-N-(4-(4-amino-1-methyl-7-(1-(2,2,2-trifluoroethyl)-1H-pyrazol-4-yl)-1H-pyrazolo[4,3-c]pyridin-3-yl)-2-(1-(4-fluorophenyl)ethoxy)phenyl)-1,1-difluoromethanesulfonamide] | < 0.01 |
| > 10 | C[C@H](Oc1cc(-c2nn(C)c3c(-c4cnn(C5CCC(F)(F)C5)c4)cnc(N)c23)ccc1NS(=O)(=O)C(F)F)c1ccc(F)cc1 (stereo partly drawn) [Compound 120, N-(4-{4-amino-7-[1-(3,3-difluorocyclopentyl)-1H-pyrazol-4-yl]-1-methyl-1H-pyrazolo[4,3-c]pyridin-3-yl}-2-[(1S)-1-(4-fluorophenyl)ethoxy]phenyl)-1,1-difluoromethanesulfonamide] | < 0.01 |
| > 10 | C[C@@H](Oc1cc(-c2nn(C)c3c(-c4cnn(C5CCOCC5)c4)cnc(N)c23)ccc1NS(=O)(=O)C(F)F)c1ccc(F)cc1 [Compound 121, (R)-N-(4-(4-amino-1-methyl-7-(1-(tetrahydro-2H-pyran-4-yl)-1H-pyrazol-4-yl)-1H-pyrazolo[4,3-c]pyridin-3-yl)-2-(1-(4-fluorophenyl)ethoxy)phenyl)-1,1-difluoromethanesulfonamide] | 0.01 to 1 |
| > 10 | C[C@H](Oc1cc(-c2nn(C)c3c(-c4cnn(C5CCOCC5)c4)cnc(N)c23)ccc1NS(=O)(=O)C(F)F)c1cccc(Cl)c1 [Compound 122, (S)-N-(4-(4-amino-1-methyl-7-(1-(tetrahydro-2H-pyran-4-yl)-1H-pyrazol-4-yl)-1H-pyrazolo[4,3-c]pyridin-3-yl)-2-(1-(3-chlorophenyl)ethoxy)phenyl)-1,1-difluoromethanesulfonamide] | 0.01 to 1 |

— US20250059188A1, “ARYLSULPHONAMIDE COMPOUNDS” (Anaxis Pharma Pty Ltd, priority 2021, published 2025)
